Our source for the inhibition and melting point values is US8283348B2, “1-benzyl-3-hydroxymethylindazole derivatives and use thereof in the treatment of diseases based on the expression of MCP-1, CX3CR1 and p40” (Aziende Chimiche Riunite Angelini Francesco A.C.R.A.F. …, priority 2008, dated 2012).

SMILES strings stand for the structures.

The subject of one data set is human MCP-1. Nature of the data set: Gene expression of MCP-1 in LPS-stimulated MonoMac6 cells (real-time RT-PCR). The format is cell-based. The settings on record: MONO-MAC-6, MCP-1 mRNA, 1 h preincubation, LPS 100 ng/ml 4 h; for inhibition at 300 µM: MonoMac6, compound 300 μM (maximum soluble concentration); for inhibition at 150 µM: MonoMac6, compound 150 μM (maximum soluble concentration); for inhibition at 75 µM: MonoMac6, compound 75 μM (maximum soluble concentration). As for the experimental part:
The capacity of the compounds to inhibit the expression of MCP-1 by lipopolysaccharide (LPS)-stimulated MonoMac6 cells was evaluated. The cells were placed in 96-well plates at a concentration of 50 000 cells/well. The compounds were tested at the maximum soluble concentration given in Table 1 (in the range 30-300 μM) and incubated for 1 hour. The cells were then stimulated with LPS (100 ng/ml) for 4 hours.
(§1) The total RNA was extracted from the cell pellet using the RNeasy mini kit (Qiagen), reverse-transcribed with the TaqMan Reverse transcription reagents synthesis kit (Applied Biosystems) and the cDNA obtained was used for the real-time PCR reaction. The amplification was obtained in 96-well plates using the ABI Prism 7000 sequence detection system (Applied Biosystems), by applying the following temperature profile: 50° C. for 2 minutes, 95° C. for 10 minutes and 45 cycles at 95° C. for 15 seconds and 60° C. for 1 minute. For the amplification, a set of primers and probe specific for human MCP-1 was used (Applied Biosystems, RefSeq NM_002982.3). A set of primers and probe for β-actin was used in separate wells as an internal control of the samples for the purposes of normalization. Once the reaction had taken place, the fluorescence data were analysed using the ABI Prism 7000 SDS software, by calculating the threshold cycle (Ct) for each sample and subsequently performing a relative quantification via the ΔΔCt method.
The results obtained, expressed as a percentage of inhibition, are collated in Table 1 below.

The next data set has as its system MCP-1. Kind of data set: Production of MCP-1 protein by LPS-stimulated MonoMac6 cells (ELISA). Type of data set: cell-based. Conditions: Homo sapiens, MONO-MAC-6, MCP-1 protein in supernatant (ELISA), LPS 100 ng/ml 20 h; for inhibition at 30 µM: MonoMac6, compound 30 μM (maximum soluble concentration); for inhibition at 300 µM: MonoMac6, compound 300 μM (maximum soluble concentration); for inhibition at 150 µM: MonoMac6, compound 150 μM (maximum soluble concentration); for inhibition at 75 µM: MonoMac6, compound 75 μM (maximum soluble concentration). As for the experimental part:
The capacity of the compounds to inhibit the expression of the protein MCP-1 by lipopolysaccharide (LPS)-stimulated MonoMac6 cells was evaluated. The cells were placed in 96-well plates at a concentration of 50 000 cells/well. The compounds were tested at the maximum soluble concentration given in Table 2 (in the range 30-300 μM) and incubated for 1 hour. The cells were then stimulated with LPS (100 ng/ml) for 20 hours.
The amount of MCP-1 produced was measured in the supernatants, suitably diluted with buffer, by means of an immunoenzymatic test (ELISA) using a commercial kit (ELISA MCP-1/JE, R&D Systems).
The results obtained, expressed as a percentage of inhibition, are collated in Table 2 below.

The test system of another data set is human CX3CR1. Kind of data set: Gene expression of CX3CR1 in LPS-stimulated MonoMac6 cells (real-time RT-PCR). The format is cell-based. The settings on record: MONO-MAC-6, CX3CR1 mRNA, LPS 100 ng/ml 20 h; for inhibition at 300 µM: MonoMac6, compound 300 μM (maximum soluble concentration); for inhibition at 150 µM: MonoMac6, compound 150 μM (maximum soluble concentration); for inhibition at 75 µM: MonoMac6, compound 75 μM (maximum soluble concentration). As for the experimental part: as §1, with “The capacity of the compounds to inhibit the expression of CX3CR1 by lipopolysaccharide (LPS)-stimulated MonoMac6 cells was evaluated. The cells were placed in 96-well plates at a concentration of 50 000 cells/well. The compounds were tested at the maximum soluble concentration given in Table 3 (in the range 30-300 μM) and incubated for 1 hour. The cells were then stimulated with LPS (100 ng/ml) for 20 hours. The total” for “The total”, “for human CX3CR1 was used” for “for human MCP-1 was used”, “Biosystems, RefSeq NM_001337.3). A set” for “Biosystems, RefSeq NM_002982.3). A set”, “ΔΔCt method. The results obtained, expressed as a percentage of inhibition, are collated in Table 3 below.” for “ΔΔCt method.”

A further data set relates to human p40. Kind of data set: Gene expression of p40 in LPS-stimulated MonoMac6 cells (real-time RT-PCR). Type of data set: cell-based. The settings on record: MONO-MAC-6, p40 mRNA, LPS 100 ng/ml 4 h; for inhibition at 150 µM: MonoMac6, compound 150 μM (maximum soluble concentration); for inhibition at 75 µM: MonoMac6, compound 75 μM (maximum soluble concentration). As for the experimental part: The capacity of the compounds to inhibit the expression of p40 by lipopolysaccharide (LPS)-stimulated MonoMac6 cells was evaluated. The cells were placed in 96-well plates at a concentration of 50 000 cells/well. The compounds were tested at the maximum soluble concentration given in Table 4 (in the range 30-300 μM) and incubated for 1 hour. The cells were then stimulated with LPS (100 ng/ml) for 4 hours.
as §1, with “p40” for “MCP-1”, “NM_002187.2).” for “NM_002982.3).”
The results obtained, expressed as a percentage of inhibition, are collated in Table 4 below.

Where [1] appears, read: MonoMac6, compound 30 μM (maximum soluble concentration).

As for `CC(C)(OCc1nn(Cc2ccccc2)c2ccccc12)C(=O)Nc1ccccn1` [Compound 14, 2-[(1-benzyl-1H-indazol-3-yl)methoxy]-2-methyl-N-pyrid-2-ylpropanamide], the melting point was 121 to 122 °C. Besides, at 30 µM the inhibition in the data set with human MCP-1 (setting [1]) was 49%. For the same molecule, in the data set with MCP-1, the inhibition at 30 µM came out at 70%. The same molecule showed an inhibition at 30 µM with human CX3CR1 (setting [1]) of 44%. In the data set on human p40 (setting [1]), this molecule had an inhibition at 30 µM of 27%.

As for `CC(C)(OCc1nn(Cc2ccccc2)c2ccccc12)C(=O)NNC(N)=O` [Compound 12, 2-{2-[(1-benzyl-1H-indazol-3-yl)methoxy]-2-methylpropanoyl}hydrazinecarboxamide], the inhibition at 300 µM worked out at 20% in the data set with human MCP-1, 48% in the data set with MCP-1 and 83% in the data set with human CX3CR1.

In turn, `CC(C)(OCc1nn(Cc2ccccc2)c2ccccc12)C(=O)NO` [Compound 10, 2-[(1-benzyl-1H-indazol-3-yl)methoxy]-N-hydroxy-2-methylpropanamide] yielded a melting point of 115 to 116 °C. For the same molecule, the inhibition at 150 µM in the data set with human MCP-1 is 61%. The molecule further returned an inhibition at 150 µM with MCP-1 of 91%. Moreover, the inhibition at 150 µM in the data set with human CX3CR1 turned out to be 95%. Further, the inhibition at 150 µM in the data set with human p40 came out at 54%.

In the case of `CN(C)CCNC(=O)C(C)(C)OCc1nn(Cc2ccccc2)c2ccccc12.Cl` [Compound 13, 2-[(1-benzyl-1H-indazol-3-yl)methoxy]-N-[2-(dimethylamino)ethyl]-2-methylpropanamide hydrochloride], the melting point was 136 to 137 °C. For the same molecule, the inhibition at 75 µM in the data set with human MCP-1 worked out at 72%. This molecule also registered an inhibition at 75 µM in the data set with MCP-1 of 74%. This molecule also came in with an inhibition at 75 µM in the data set on human CX3CR1 of 100%. In the data set on human p40, this molecule returned an inhibition at 75 µM of 59%.

The molecule `CN1CCN(C(=O)C(C)(C)OCc2nn(Cc3ccccc3)c3ccccc23)CC1` [Compound 15, 1-benzyl-3-{[1,1-dimethyl-2-(4-methylpiperazin-1-yl)-2-oxoethoxy]methyl}-1H-indazole] showed a melting point of 97 to 98 °C. In the data set on human MCP-1, this molecule returned an inhibition at 75 µM of 40%. Moreover, 75 µM produced 59% inhibition in the data set with MCP-1. Further, 75 µM produced 89% inhibition in the data set with human CX3CR1. In the data set on human p40, the inhibition at 75 µM was found to be 33%.

`CC(C)(OCc1nn(Cc2ccccc2)c2ccccc12)C(=O)NN` [Compound 11, 2-[(1-benzyl-1H-indazol-3-yl)methoxy]-2-methylpropanohydrazide]: the melting point lay within 92 to 93 °C. This molecule returned an inhibition at 150 µM with human MCP-1 of 68%. Besides, in the data set on MCP-1, testing at 150 µM gave an inhibition of 79%. The molecule also registered an inhibition at 150 µM in the data set on human CX3CR1 of 90%. In the data set on human p40, this molecule returned an inhibition at 150 µM of 44%.

`CC(C)(OCc1nn(Cc2ccccc2)c2ccccc12)C(N)=O` [Compound 9, 2-[(1-benzyl-1H-indazol-3-yl)methoxy]-2-methylpropanamide] gave a melting point of 111 to 112 °C. The inhibition at 300 µM with human MCP-1 was determined as 99%. The inhibition at 300 µM with MCP-1 came to 98%. In the data set on human CX3CR1, testing at 300 µM gave an inhibition of 99%. The inhibition at 300 µM with human p40 (MonoMac6, compound 300 μM (maximum soluble concentration)) came to 96%.

As for `CC(C)(OCc1nn(Cc2ccccc2)c2ccccc12)C(=O)NNc1ccccc1` [Compound 27, 2-[(1-benzyl-1H-indazol-3-yl)methoxy]-2-methyl-N′-phenylpropanohydrazide], the melting point is 124 to 125 °C. This molecule also came in with an inhibition at 30 µM with MCP-1 of 82%.
